The record followed here is the NIST ThermoML archive (doi:10.1016/j.fluid.2011.01.012).

SMILES strings stand for the structures. Numbers after ± are expanded uncertainties.

As a reminder, the mass density is the mass of a sample divided by its volume. A word on the refractive index: it is the speed of light in vacuum divided by its phase velocity in the sample.

For data set [1] the following is noted: Liquid; for mass density: 293.15 K, 101.33 kPa, Vibrating tube method; for Normal boiling temperature: Fischer Boiling Piont Apparatus.
Data set [2] is described as follows: refractive index (Na D-line) (dimensionless). The settings on record: 293.15 K; 101.33 kPa; Liquid; Standard Abbe refractometry.

In the case of `CCOC(=O)CCCCC(=O)OCC` [diethyl hexanedioate], in data set [1], the mass density was 1007.63 ± 0.34 kg/m3 and the Normal boiling temperature was 245.1 ± 1 °C. Also, in data set [2], the refractive index is given as 1.42725 ± 0.00039.

With `CCOC(=O)CCCC(=O)OCC` [diethyl glutarate], in data set [1], the mass density is 1022.04 ± 0.92 kg/m3 and the Normal boiling temperature worked out at 236.5 ± 1 °C. Also, in data set [2], the refractive index turned out to be 1.42414 ± 0.00052.

`O` [water]: in data set [1], the mass density amounted to 999.9 ± 0.24 kg/m3 and the Normal boiling temperature amounted to 100.1 ± 1 °C. The refractive index in data set [2] is listed as 1.3324 ± 0.00033.

As for `CCOC(=O)CCC(=O)OCC` [diethyl butanedioate], in data set [1], the mass density is listed as 1040.22 ± 0.36 kg/m3 and the Normal boiling temperature stood at 217.7 ± 1 °C. For the same molecule, in data set [2], the refractive index is 1.42014 ± 0.00039.
